Measured values reported in patent publication US20220340598A1, “PYRAZOLOPYRIDINONE COMPOUNDS” (Janssen Pharmaceutica NV, priority 2017, published 2022).

What was measured:
[1] = target: T1, human FGFR3 wild type enzyme (cytoplasmic domain) (Homo sapiens, UniProt P22607); assay: FGFR3 wild type mobility shift assay (enzymatic assay); format: biochemical; conditions: 75 μM ATP, 50 minutes at 30° C., Caliper EZ reader II
T1 construct: human FGFR3 wild type enzyme (cytoplasmic domain, from Carna Biosciences)
Experimental: FGFR3 Wild Type Mobility Shift Assay (Enzymatic Assay)
(§1) In a final reaction volume of 25 μL, 0.04 ng/μL human FGFR3 wild type enzyme (cytoplasmic domain, from Carna Biosciences) was incubated with 75 μM ATP, 1 μM FL-peptide 30 substrate and 250 nL of testing compound (1% DMSO final) in assay buffer (100 mM HEPES pH 7.4, 10 mM MgCl2, 0.003% Brij35, 1 mM DTT). After incubation for 50 minutes at 30° C. the reaction was stopped with 10 μL of 0.5M EDTA pH 8.0, and then 25 μL of reaction mixture was transferred to reading plate and measured on Caliper EZ reader II.

[2] = target: T2, human FGFR3 V555M enzyme (cytoplasmic domain carrying V555M mutation) (Homo sapiens, UniProt P22607, V555M); assay: FGFR3 V555M mobility shift assay (enzymatic assay); format: biochemical; conditions: 30 μM ATP, 45 minutes at 30° C., Caliper EZ reader II
T2 construct: human FGFR3 V555M enzyme (cytoplasmic domain carrying V555M mutation, from Carna Biosciences)
Experimental: FGFR3 V555M Mobility Shift Assay (Enzymatic Assay)
as §1, with “FGFR3 V555M” for “FGFR3 wild type”, “(cytoplasmic domain carrying V555M mutation,” for “(cytoplasmic domain,”, “with 30” for “with 75”, “for 45” for “for 50”

[3] = target: T3, NIH/3T3 cells overexpressing FGFR3 V555M-TACC3 fusion protein (Homo sapiens, UniProt P22607, V555M, cells depend on it); assay: NIH/3T3 FGFR3 V555M-TACC3 cell proliferation assay; format: cell-based; conditions: 72-hr incubation, CellTiter Glo; read-out: NIH/3T3 FGFR3 V555M-TACC3 CTG (IC50)
T3 construct: fused on or other part: Q9Y6A5 (Transforming acidic coiled-coil-containing protein 3)
Experimental: NIH/3T3 FGFR3 V555M-TACC3 Cell Proliferation Assay
(§2) In day 1, 90 μL of cell suspension (NIH/3T3 cells overexpressing FGFR3 V555M-TACC3 fusion protein) (total 30,000 cells per well in growth medium (DMEM containing 1% Glutamax, 10% FBS and 1% Pen/Strep)) was seeded in a 96-well plate and then incubated overnight at 37° C. and 5% CO2. In day 2, 10 μL of growth medium containing 10-fold stock solution of testing compound was added into cell cultures (9 dose points with 4× serial dilution, starting with 10 μM, 0.1% DMSO final). After 72-hr incubation at 37° C. and 5% CO2, in day 5 a volume of 50 μL CellTiter Glo (CTG) reagent was added into cell-containing 96-well plate and the plate was incubated at room temperature for 10 minutes before RLUs (relative light unit) were measured on a microplate reader with luminescence detection module. The RLU value was normalized to survival % and concentration-response curve was plotted using Prism to calculate IC50 (M), pIC50 (−log IC50) and HillSlope value.

[4] = target: T4, NIH/3T3 cells overexpressing FGFR3 WT-TACC3 fusion protein (Homo sapiens, UniProt P22607); assay: NIH/3T3 FGFR3 WT-TACC3 cell proliferation assay; format: cell-based; conditions: 72-hr incubation, CellTiter Glo; read-out: NIH/3T3 FGFR3 WT-TACC3 CTG (IC50)
T4 construct: fused on or other part: Q9Y6A5 (Transforming acidic coiled-coil-containing protein 3)
Experimental: NIH/3T3 FGFR3 WT-TACC3 Cell Proliferation Assay
as §2, with “WT-TACC3” for “V555M-TACC3”

T1 sequence (P22607 397-806): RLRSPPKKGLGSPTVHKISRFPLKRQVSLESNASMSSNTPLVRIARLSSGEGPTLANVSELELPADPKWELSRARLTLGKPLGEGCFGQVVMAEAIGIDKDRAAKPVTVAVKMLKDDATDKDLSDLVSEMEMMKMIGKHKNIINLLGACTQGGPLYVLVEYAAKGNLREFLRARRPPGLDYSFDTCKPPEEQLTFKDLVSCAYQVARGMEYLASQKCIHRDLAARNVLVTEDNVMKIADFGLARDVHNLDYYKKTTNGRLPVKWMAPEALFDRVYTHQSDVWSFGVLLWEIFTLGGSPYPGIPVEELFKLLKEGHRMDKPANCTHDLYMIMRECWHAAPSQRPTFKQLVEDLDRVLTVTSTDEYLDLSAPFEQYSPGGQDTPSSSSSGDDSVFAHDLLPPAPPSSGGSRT
T4 sequence (P22607 whole entry, change not shown, the tested form may be a part): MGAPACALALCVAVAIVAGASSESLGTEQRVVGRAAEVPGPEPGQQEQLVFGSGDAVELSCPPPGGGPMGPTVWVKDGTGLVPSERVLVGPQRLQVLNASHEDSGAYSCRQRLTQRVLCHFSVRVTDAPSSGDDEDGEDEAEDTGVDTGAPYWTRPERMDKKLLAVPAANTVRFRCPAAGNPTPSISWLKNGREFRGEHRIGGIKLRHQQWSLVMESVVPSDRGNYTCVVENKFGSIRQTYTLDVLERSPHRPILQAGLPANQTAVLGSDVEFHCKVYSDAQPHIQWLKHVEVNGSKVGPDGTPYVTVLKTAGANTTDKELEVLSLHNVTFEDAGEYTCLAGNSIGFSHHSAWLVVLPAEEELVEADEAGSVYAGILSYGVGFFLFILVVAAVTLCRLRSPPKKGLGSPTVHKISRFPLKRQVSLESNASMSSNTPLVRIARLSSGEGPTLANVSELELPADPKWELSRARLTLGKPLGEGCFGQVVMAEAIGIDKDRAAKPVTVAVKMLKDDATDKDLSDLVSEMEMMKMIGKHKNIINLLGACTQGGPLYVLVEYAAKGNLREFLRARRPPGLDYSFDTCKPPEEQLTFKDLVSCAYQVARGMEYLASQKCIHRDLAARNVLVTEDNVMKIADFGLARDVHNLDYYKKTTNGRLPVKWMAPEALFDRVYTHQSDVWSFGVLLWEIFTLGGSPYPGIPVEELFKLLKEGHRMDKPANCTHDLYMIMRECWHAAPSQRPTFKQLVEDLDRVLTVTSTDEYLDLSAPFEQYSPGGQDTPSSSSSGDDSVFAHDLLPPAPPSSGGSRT
T3 sequence (P22607 whole entry V555M, the tested form may be a part): as the sequence (P22607 whole entry, change not shown, the tested form may be a part) above, with V555M counted along it
T2 sequence (P22607 397-806 V555M): as the sequence (P22607 397-806) above, with V159M counted along it

| Compound | IC50 [1] [µM] | IC50 [2] [µM] | GI50 [3] [µM] | GI50 [4] [µM] |
| --- | --- | --- | --- | --- |
| CC(C)C(Nc1c(-c2nc3cnc(N(C)C)cc3[nH]2)c(=O)[nH]c2cn(C)nc12)c1ncccn1 (single isomer, unassigned) [Compound 11, (S*)-6-(6-(dimethylamino)-1H-imidazo[4,5-c]pyridin-2-yl)-2-methyl-7-((2-methyl-1-(pyrimidin-2-yl)propyl)amino)-2H-pyrazolo[4,3-b]pyridin-5(4H)-one] | 0.00677 | 0.00105 | 0.0507 | 0.0671 |
| COc1ccc2nc(-c3c(N[C@H](c4ncccn4)C(C)C)c4nn(C)cc4[nH]c3=O)[nH]c2c1 (single isomer, unassigned) [Compound 15, (S*)-6(5-Methoxy-1H-benzo[d]imidazol-2-yl)-2-methyl-7-((2-methyl-1-(pyrimidin-2-yl)propyl)amino)-2H-pyrazolo[4,3-b]pyridin-5(4H)-one] | 0.00452 | 0.000753 | 0.0459 | 0.065 |
| CC(C)[C@H](Nc1c(-c2nc3cnccc3[nH]2)c(=O)[nH]c2cn(C)nc12)c1ncccn1 (single isomer, unassigned) [Compound 24, (S*)-6-(1H-imidazo[4,5-c]pyridin-2-yl)-2-methyl-7-((2-methyl-1-(pyrimidin-2-yl)propyl)amino)-2H-pyrazolo[4,3-b]pyridin-5(4H)-one] | 0.0135 | 0.0025 | 0.117 | 0.166 |
| COCC(Nc1c(-c2nc3cc(OC)c(OC)cc3[nH]2)c(=O)[nH]c2cn(C)nc12)c1ncccn1 (single isomer, unassigned) [Compound 25, (S*)-6-(5,6-dimethoxy-1H-benzo[d]imidazol-2-yl)-7-((2-methoxy-1-(pyrimidin-2-yl)ethyl)amino)-2-methyl-2H-pyrazolo[4,3-b]pyridin-5(4H)-one] | 0.0154 | 0.00265 | 0.359 | 0.357 |
| COc1cc2nc(-c3c(NC(c4ncccn4)C(C)C)c4nn(C)cc4[nH]c3=O)[nH]c2cc1OC (single isomer, unassigned) [Compound 27, (S*)-6-(5,6-dimethoxy-1H-benzo[d]imidazol-2-yl)-2-methyl-7-((2-methyl-1-(pyrimidin-2-yl)propyl)amino)-2H-pyrazolo[4,3-b]pyridin-5(4H)-one] | 0.00482 | 0.00114 | 0.0312 | 0.0402 |
| CC[C@H](Nc1c(-c2nc3ccc(OCCOC)cc3[nH]2)c(=O)[nH]c2cn(C)nc12)c1ncccn1 (single isomer, unassigned) [Compound 48, (S*)-6(6-(2-methoxyethoxy)-1H-benzol-2-yl)-2-methyl-7-((1-(pyrimidin-2-yl)propyl)amino)-2H-pyrazolo[4,3-b]pyridin-5(4H)-one] | 0.00145 | 0.000634 | 0.112 | 0.0171 |
